This note sets out measurements from patent publication US12454534B2, “Pyrrolo[2,3-b]pyrazines as HPK1 inhibitor and the use thereof” (BEIGENE, LTD., priority 2019, dated 2025).

The test has as its target T1, HPK1 kinase (aa1-346, Life Technologies) (Homo sapiens, UniProt Q92918).
T1 construct: HPK1 kinase (aa1-346, Life Technologies); purchased Life Technologies
T1 sequence (Q92918 1-346): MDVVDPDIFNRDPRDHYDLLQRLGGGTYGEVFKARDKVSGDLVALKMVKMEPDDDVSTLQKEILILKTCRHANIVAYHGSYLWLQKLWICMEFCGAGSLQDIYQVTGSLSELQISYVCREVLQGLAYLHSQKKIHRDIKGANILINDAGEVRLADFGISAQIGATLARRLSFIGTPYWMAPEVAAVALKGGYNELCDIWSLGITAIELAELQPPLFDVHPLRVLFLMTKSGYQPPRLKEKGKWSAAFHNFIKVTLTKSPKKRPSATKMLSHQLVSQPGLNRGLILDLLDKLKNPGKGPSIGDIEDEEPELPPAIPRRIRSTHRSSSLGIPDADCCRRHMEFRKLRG
Kind of test: HPK1 Kinase Activity Assay at 1 mM ATP (TR-FRET). The format is biochemical. To be noted: HPK1 40 nM, read-out: Enzymatic activity IC50. As for the experimental part: HPK1 Kinase Activity Assay at 1 mM ATP
Compounds disclosed herein were tested for inhibition of HPK1 kinase (aa1-346, Life Technologies) activity in assays based on the time-resolved fluorescence-resonance energy transfer (TR-FRET) methodology. The assays were carried out in 384-well low volume black plates in a reaction mixture containing HPK1 kinase (40 nM), 1 mM ATP, 0.5 μM STK1 substrate and 0-10 μM compound in buffer containing 50 mM HEPES, 0.01% BSA, 0.1 mM Orthovanadate, 10 mM MgCl2, 1 mM DTT, pH=7.0, 0.005% Tween-20. The kinase was incubated with the compounds disclosed herein or DMSO for 60 minutes at room temperature and the reaction was initiated by the addition of ATP and STK1 substrate. After reaction at room temperature for 120 minutes, an equal volume of stop/detection solution was added according to the manufacturer's instruction (CisBio). The stop/detection solution contained STK Antibody-Cryptate and XL665-conjugated streptavidin in Detection Buffer. The TR-FRET signals (ratio of fluorescence emission at 665 nm over emission at 620 nm with excitation at 337 nm wavelength) were recorded on a PHERAstar FS plate reader (BMG Labtech). Phosphorylation of STK1 substrate led to the binding of STK Antibody-Cryptate to the biotinylated STK1 substrate, which places fluorescent donor (Eu^3+ cryptate) in close proximity to the accepter (Streptavidin-XL665), thus resulting in a high degree of fluorescence resonance energy transfer. The inhibition of HPK1 in presence of increasing concentrations of compounds was calculated based on the ratio of fluorescence at 665 nm to that at 620 nm. The IC50 for each compound was derived from fitting the data to the four-parameter logistic equation by Graphpad Prism software.
For orientation: Time-resolved FRET reads energy transfer from a long-lived donor to a nearby acceptor.

Take `CN[C@H]1CCN(C(=O)c2ccc(-c3c[nH]c4ncc(-c5cc6c(c(OC)c5)CCN(C)C6)nc34)cc2)C1` [Example 18, (S)-(4-(2-(5-methoxy-2-methyl-1,2,3,4-tetrahydroisoquinolin-7-yl)-5H-pyrrolo[2,3-b]pyrazin-7-yl)phenyl) (3-(methylamino)pyrrolidin-1-yl)methanone]: the IC50 (in general, the concentration that gives 50% inhibition) was 7 nM.
The same measure for `CNC(=O)CCN1CCc2c(C)cc(-c3cnc4[nH]cc(-c5ccc(C(=O)N(C)C)c(C)c5)c4n3)cc2C1` [Example 25, N, N, 2-trimethyl-4-(2-(5-methyl-2-(3-(methylamino)-3-oxopropyl)-1,2,3,4-tetrahydroisoquinolin-7-yl)-5H-pyrrolo[2,3-b]pyrazin-7-yl)benzamide]: 49 nM; for `COCCCNC(=O)CCN1CCc2c(C)cc(-c3cnc4[nH]cc(-c5ccc(C(=O)N(C)C)c(C)c5)c4n3)cc2C1` [Example 44, 4-(2-(2-(3-((3-methoxypropyl)amino)-3-oxopropyl)-5-methyl-1,2,3,4-tetrahydroisoquinolin-7-yl)-5H-pyrrolo[2,3-b]pyrazin-7-yl)-N, N, 2-trimethylbenzamide]: 82 nM.
For `Cc1cc(-c2cnc3[nH]cc(-c4ccc(C(=O)N(C)C)cc4)c3n2)cc2c1CCN(CCC(=O)NC1CC1)C2` [Example 47, 4-(2-(2-(3-(cyclopropylamino)-3-oxopropyl)-5-methyl-1,2,3,4-tetrahydroisoquinolin-7-yl)-5H-pyrrolo[2,3-b]pyrazin-7-yl)-N, N-dimethylbenzamide], the 50% inhibitory concentration (IC50) stood at 22 nM.
Regarding `Cc1cc(-c2c[nH]c3ncc(-c4cc(C)c5c(c4)CN(CCC(=O)N4CCN(C)CC4)CC5)nc23)ccc1C(=O)N(C)C` [Example 24, N, N, 2-trimethyl-4-(2-(5-methyl-2-(3-(4-methylpiperazin-1-yl)-3-oxopropyl)-1,2,3,4-tetrahydroisoquinolin-7-yl)-5H-pyrrolo[2,3-b]pyrazin-7-yl)benzamide], the IC50 was 75 nM.
The same measure for `Cc1cc(-c2c[nH]c3ncc(-c4cc(C)c5c(c4)CN(CCC(=O)NC[C@H](C)O)CC5)nc23)ccc1C(=O)N(C)C` [Example 30, (S)-4-(2-(2-(3-(2-hydroxypropylamino)-3-oxopropyl)-5-methyl-1,2,3,4-tetrahydroisoquinolin-7-yl)-5H-pyrrolo[2,3-b]pyrazin-7-yl)-N, N, 2-trimethylbenzamide]: 63 nM; for `Cc1cc(-c2cnc3[nH]cc(-c4ccc(C(=O)N(C)CCC#N)cc4)c3n2)cc2c1CCN(C)C2` [Example 59, N-(2-cyanoethyl)-4-(2-(2,5-dimethyl-1,2,3,4-tetrahydroisoquinolin-7-yl)-5H-pyrrolo[2,3-b]pyrazin-7-yl)-N-methylbenzamide]: 16 nM.
For `Cc1cc(-c2cnc3[nH]cc(-c4ccc(C(=O)N(C)C)cc4)c3n2)cc2c1CCN(CCC(=O)NCCN1CCN(C)CC1)C2` [Example 49, N, N-dimethyl-4-(2-(5-methyl-2-(3-((2-(4-methylpiperazin-1-yl)ethyl)amino)-3-oxopropyl)-1,2,3,4-tetrahydroisoquinolin-7-yl)-5H-pyrrolo[2,3-b]pyrazin-7-yl)benzamide] the value was 67 nM; for `Cc1cc(-c2c[nH]c3ncc(-c4cc(C)c5c(c4)CN(CCC(=O)NCCCO)CC5)nc23)ccc1C(=O)N(C)C` [Example 46, 4-(2-(2-(3-((3-hydroxypropyl)amino)-3-oxopropyl)-5-methyl-1,2,3,4-tetrahydroisoquinolin-7-yl)-5H-pyrrolo[2,3-b]pyrazin-7-yl)-N, N, 2-trimethylbenzamide], 65 nM; for `Cc1cc(-c2c[nH]c3ncc(-c4cc(C)c5c(c4)CN(CCC(=O)N[C@@H]4CCCOC4)CC5)nc23)ccc1C(=O)N(C)C` [Example 53, (R)—N, N, 2-trimethyl-4-(2-(5-methyl-2-(3-oxo-3-((tetrahydro-2H-pyran-3-yl)amino)propyl)-1,2,3,4-tetrahydroisoquinolin-7-yl)-5H-pyrrolo[2,3-b]pyrazin-7-yl)benzamide], 78 nM.
For `Cc1cc(-c2c[nH]c3ncc(-c4cc(C)c5c(c4)CN(CCC(=O)N[C@@H]4CCOC4)CC5)nc23)ccc1C(=O)N(C)C` [Example 34, (R)—N, N, 2-trimethyl-4-(2-(5-methyl-2-(3-oxo-3-(tetrahydrofuran-3-ylamino)propyl)-1,2,3,4-tetrahydroisoquinolin-7-yl)-5H-pyrrolo[2,3-b]pyrazin-7-yl)benzamide] the value was 42 nM; for `Cc1cc(-c2c[nH]c3ncc(-c4cc(C)c5c(c4)CN(CCC(=O)N(C)C)CC5)nc23)ccc1C(=O)N(C)C` [Example 26, 4-(2-(2-(3-(dimethylamino)-3-oxopropyl)-5-methyl-1,2,3,4-tetrahydroisoquinolin-7-yl)-5H-pyrrolo[2,3-b]pyrazin-7-yl)-N, N, 2-trimethylbenzamide], 63 nM; for `Cc1cc(-c2cnc3[nH]cc(-c4ccc(C(=O)N(C)C)cc4)c3n2)cc2c1CCN(CCN1CCC(C)(O)CC1)C2` [Example 37, 4-(2-(2-(2-(4-hydroxy-4-methylpiperidin-1-yl)ethyl)-5-methyl-1,2,3,4-tetrahydroisoquinolin-7-yl)-5H-pyrrolo[2,3-b]pyrazin-7-yl)-N, N-dimethylbenzamide], 35 nM.
For the compound `COc1cc(-c2cnc3[nH]cc(-c4ccc(C(=O)N(C)C[C@@H]5CCOC5)cc4)c3n2)cc2c1CN(C)CC2` [Example 57, (S)-4-(2-(8-methoxy-2-methyl-1,2,3,4-tetrahydroisoquinolin-6-yl)-5H-pyrrolo[2,3-b]pyrazin-7-yl)-N-methyl-N-((tetrahydrofuran-3-yl)methyl)benzamide], the half-maximal inhibitory concentration (IC50) amounted to 14 nM.
As for `COc1cc(-c2cnc3[nH]cc(-c4ccc(C(=O)N(C)C[C@H](C)O)c(C)c4)c3n2)cc2c1CCN(C)C2` [Example 12, (S)—N-(2-hydroxypropyl)-4-(2-(5-methoxy-2-methyl-1,2,3,4-tetrahydroisoquinolin-7-yl)-5H-pyrrolo[2,3-b]pyrazin-7-yl)-N, 2-dimethylbenzamide], the IC50 was 52 nM.
For `Cc1cc(-c2c[nH]c3ncc(-c4cc(C)c5c(c4)CN(CCC(=O)NCCO)CC5)nc23)ccc1C(=O)N(C)C` [Example 45, 4-(2-(2-(3-((2-hydroxyethyl)amino)-3-oxopropyl)-5-methyl-1,2,3,4-tetrahydroisoquinolin-7-yl)-5H-pyrrolo[2,3-b]pyrazin-7-yl)-N, N, 2-trimethylbenzamide] the value was 52 nM; for `[2H]C([2H])([2H])N(C(=O)c1ccc(-c2c[nH]c3ncc(-c4cc(C)c5c(c4)CCN(C)C5)nc23)cc1C)C([2H])([2H])[2H]` [Example 128, 4-(2-(2,8-dimethyl-1,2,3,4-tetrahydroisoquinolin-6-yl)-5H-pyrrolo[2,3-b]pyrazin-7-yl)-2-methyl-N,N-bis(methyl-d3)benzamide], 21 nM; for `COCCCNC(=O)CN1CCc2c(C)cc(-c3cnc4[nH]cc(-c5ccc(C(=O)N(C)C)c(C)c5)c4n3)cc2C1` [Example 52, 4-(2-(2-(2-((3-methoxypropyl)amino)-2-oxoethyl)-5-methyl-1,2,3,4-tetrahydroisoquinolin-7-yl)-5H-pyrrolo[2,3-b]pyrazin-7-yl)-N, N, 2-trimethylbenzamide], 74 nM.
The same measure for `Cc1cc(-c2c[nH]c3ncc(-c4cc(C)c5c(c4)CN(CCC(=O)N[C@H]4CC[C@@H](O)CC4)CC5)nc23)ccc1C(=O)N(C)C` [Example 41, 4-(2-(2-(3-((cis-4-hydroxycyclohexyl)amino)-3-oxopropyl)-5-methyl-1,2,3,4-tetrahydroisoquinolin-7-yl)-5H-pyrrolo[2,3-b]pyrazin-7-yl)-N, N, 2-trimethylbenzamide]: 54 nM; for `COc1cc(-c2cnc3[nH]cc(-c4ccc(C(=O)N(C)C)cc4)c3n2)cc2c1CN(CC(C)(C)O)CC2` [Example 58, 4-(2-(2-(2-hydroxy-2-methylpropyl)-8-methoxy-1,2,3,4-tetrahydroisoquinolin-6-yl)-5H-pyrrolo[2,3-b]pyrazin-7-yl)-N, N-dimethylbenzamide]: 21 nM; for `CN[C@H]1CCN(C(=O)c2ccc(-c3c[nH]c4ncc(-c5cc(C)c6c(c5)CN(C)CC6)nc34)cc2)C1` [Example 14, (S)-(4-(2-(2,5-dimethyl-1,2,3,4-tetrahydroisoquinolin-7-yl)-5H-pyrrolo[2,3-b]pyrazin-7-yl)phenyl) (3-(methylamino)pyrrolidin-1-yl)methanone]: 12 nM.
